Test system: MRSA ATCC43300
Experiment: Mouse septicaemia model
Assay type: in vivo
Settings: for number of new dead mouse: infection controlled in mouse; for survival rate of mice: 5 per group
Protocol: Briefly, 6-week-old specific pathogen-free male ICR mice weighing 18–20 g were randomly divided into 4 groups (5 per group). Each mouse received an intraperitoneal injection on the left side of the abdomen with 0.4 ml, 1.8 ×10^10 c.f.u./mL MRSA ATCC43300 suspended in saline containing 5% yeast in each mouse. One hour after infection, the mice were injected intraperitoneally with saline (negative control), massatide A dissolved in saline at 10 mg/kg, 30 mg/kg and 50 mg/kg (experimental groups). […] We injected 0.4 ml solution to each mouse. Animal deaths were recorded for 7 days, and the survival rates were calculated to generate the mouse survival curve.

Compound: C/C=C1\NC(=O)C(N(C)C)C(C)SC[C@@H](C(=O)N[C@H](CC)C(=O)N[C@H](C(=O)N[C@@H](C)C(=O)N[C@H](C)C(=O)N[C@@H](Cc2ccccc2)C(=O)N[C@@H](C)C(=O)NC2C(=O)NCC(=O)N[C@@H](Cc3ccc(O)cc3)C(=O)N[C@@H](Cc3ccccc3)C(=O)N[C@H](C)C(=O)N/C=C\SC2C)C(C)C)NC(=O)[C@@H]2CCCN2C(=O)[C@H](C(C)C)NC1=O (some centres unmarked) [Massatide A (1), massatide A]
- number of new dead mouse (10mg/kg, time 2.29 day): 1
- number of new dead mouse (10mg/kg, time 3 day): 0
- number of new dead mouse (10mg/kg, time 4 day): 0
- number of new dead mouse (10mg/kg, time 6 day): 0
- number of new dead mouse (10mg/kg, time 7 day): 0
- number of new dead mouse (30mg/kg, time 2.29 day): 1
- number of new dead mouse (30mg/kg, time 3 day): 0
- number of new dead mouse (30mg/kg, time 4 day): 0
- number of new dead mouse (30mg/kg, time 6 day): 0
- number of new dead mouse (30mg/kg, time 7 day): 0
- number of new dead mouse (50mg/kg, time 2.29 day): 0
- number of new dead mouse (50mg/kg, time 3 day): 0
- number of new dead mouse (50mg/kg, time 4 day): 0
- number of new dead mouse (50mg/kg, time 6 day): 0
- number of new dead mouse (50mg/kg, time 7 day): 0
- survival rate of mice (single dose 10 mg/kg i.p. 1 h after i.p. infection with 7.2 × 10^9 c.f.u. MRSA ATCC43300, 7 days): 80%
- survival rate of mice (single dose 50 mg/kg i.p. 1 h after i.p. infection with 7.2 × 10^9 c.f.u. MRSA ATCC43300, 7 days): 100%
